Source: patent US20260317304A1, “TEAD INHIBITORS AND METHODS OF USE” (Sporos BioDiscovery, Inc., priority 2022, published 2026)

Assays:
NCI-H23 cells = assay: Proliferation and cell viability assay, CellTiter-Glo 2.0 (CTG); assay type: cell-based; conditions: Homo sapiens, non-responder cell line, 144 hrs
Method: (§1) Cell proliferation of a TEAD dependent NF2-null mesothelioma cell line, NCI-H226 was assayed using two different protocols. Results were confirmed in two different TEAD-non-dependent lung cancer cell lines, H23 and H28, were used as non-responsive controls, as indicated:
a) CellTiter-Glo® 2.0 (Promega #G9243). The effect of the TEAD inhibitors disclosed herein on cell proliferation was determined in TEAD1-genetically dependent cell line NCI-H226 (responder cell line) and TEAD-independent cell lines (NCI-H23, HEK293T), as non-responder, negative control. […] After 144 hrs of treatment, relative cell viability numbers were determined using the CellTiter-Glo 2.0 assay following the manufacturer's instructions. […] Luminescence was quantified using a CLARIOStar Plus multi-mode plate reader (BMG Labtech) in luminescence detection mode with the recommended settings (ultra-Glo pre-set: emission 545-50 nm with autofocus and enhanced dynamic range on). Relative cell density was expressed as a function of inhibitor concentration, with respect to DMSO-only control wells. Data where plotted using GraphPad Prism and IC50 values for the biological effect were calculated using the EC50 non-linear fit function using a sigmoidal, 4-parameter logistic, least squares fit with no constraints. […]

NCI-H226 cells [1] = assay: Proliferation and cell viability assay, Cell Titer One; assay type: cell-based, human; conditions: Homo sapiens, NCI-H226, 144 h, Cell Titer One assay, 6 days
Method: as §1
b) Cell Titer One (Promega, #G3582). The effect of the TEAD inhibitors disclosed herein on cell proliferation was also determined using the Promega Substrate Cell Titer Aqueous One Solution Reagent. The TEAD inhibitors were evaluated for the effects on cell proliferation responder (H226) and non-responder negative control cancer cell lines (CAMA1, H28), as well as non-transformed normal human cells (HUVEC, NHDF). Dissociated cells were resuspend in media (depending on cell line, either in DMEM, RPMI, or EMEM all with 10% FBS, with gentamicin as an antibiotic). Cells were seeded at 100 μL/well at 750 cells per well in 96-well plates and allowed to settle and attach. After an incubation of 24 hrs (37° C., 5% CO2, humidified incubator), 100 μL of test compound-containing media was added. A dilution series of 2000× concentrated stock of test compounds was prepared in DMSO, for final concentrations from 0.1 to 10,000 nM. After addition of test compound-containing media, cells were incubated for 6 days at 37° C., 5% CO2, humidified incubators). To measure cell density, 20 μL of Promega Substrate Cell Titer 96 Aqueous One Solution Reagent (Promega, #G3582) to each well was added according to the manufacturer's instructions. Plates were incubated at 37° C. for usually 3-8 hrs, to reach in the control cells (without compound) an OD of 1.5 at 490 nm. The OD was measured using Vmax [Molecular Devices] spectrophotometer plate reader. Media only-wells were used as background controls and cell densities normalized to DMSO vehicle control. EC50 were taken as the concentration achieving 50% of maximal growth inhibition.
(§2) For IC50 and EC50 data “A” indicates a value of less than 0.2 μM; the symbol “B” indicates a value in the range of from 0.2 μM up to 1 μM; and the symbol “C” indicates a value of greater than 1 μM. ND: no data.

NCI-H226 cells [2] = assay: Proliferation and cell viability assay, CellTiter-Glo 2.0 (CTG); assay type: cell-based, human; conditions: Homo sapiens, NCI-H226, responder cell line, 144 hrs
Method: as §1
a) CellTiter-Glo® 2.0 (Promega #G9243). The effect of the TEAD inhibitors disclosed herein on cell proliferation was determined in TEAD1-genetically dependent cell line NCI-H226 (responder cell line) and TEAD-independent cell lines (NCI-H23, HEK293T), as non-responder, negative control. Cells were seeded in 96-well plates (Thermo Scientific #167008) in growth media (RPMI-1640, Gibco #61870-010) for NCI-H226 and NCI-H23 or DMEM (Gibco #31966-021, HEK293T) with […] Heat Inactivated Fetal Bovine Serum (Gibco 10500-064) at 800 (NCI-H226 and HEK-293T) or 2000 (NCI-H23) cells per well at 37° C., […], humidified incubator; 24 hours later, fresh growth media containing test compound or DMSO vehicle was added and incubated with the cells for 144 hrs. TEAD inhibitor stocks were made at a 1000× fold excess in DMSO, and a dose response test compound dose range of 10,000 to 0.1 nM was used. Each treatment was carried out in triplicate. After 144 hrs of treatment, relative cell viability numbers were determined using the CellTiter-Glo 2.0 assay following the manufacturer's instructions. Test plates and CellTiter-Glo 2.0 reagent were allowed to equilibrate to room temperature. CellTiter-Glo 2.0 reagent was added at 1:1 reagent to media ratio to the 96-well cell plates, plates were placed on a plate shaker for 2 minutes and then incubated at room temperature for a further 10 minutes to allow complete cell lysis to occur. The mix was then transferred to white, 96-well luminometer assay plates (Greiner Bio One #655075). Luminescence was quantified using a CLARIOStar Plus multi-mode plate reader (BMG Labtech) in luminescence detection mode with the recommended settings (ultra-Glo pre-set: emission 545-50 nm with autofocus and enhanced dynamic range on). Relative cell density was expressed as a function of inhibitor concentration, with respect to DMSO-only control wells. Data where plotted using GraphPad Prism and IC50 values for the biological effect were calculated using the EC50 non-linear fit function using a sigmoidal, 4-parameter logistic, least squares fit with no constraints.
as §2

TEAD1 = TEAD1 (Homo sapiens, UniProt P28347); assay: TEAD thermal shift assay (TSA); assay type: binding
TEAD1, sequence (P28347 whole entry): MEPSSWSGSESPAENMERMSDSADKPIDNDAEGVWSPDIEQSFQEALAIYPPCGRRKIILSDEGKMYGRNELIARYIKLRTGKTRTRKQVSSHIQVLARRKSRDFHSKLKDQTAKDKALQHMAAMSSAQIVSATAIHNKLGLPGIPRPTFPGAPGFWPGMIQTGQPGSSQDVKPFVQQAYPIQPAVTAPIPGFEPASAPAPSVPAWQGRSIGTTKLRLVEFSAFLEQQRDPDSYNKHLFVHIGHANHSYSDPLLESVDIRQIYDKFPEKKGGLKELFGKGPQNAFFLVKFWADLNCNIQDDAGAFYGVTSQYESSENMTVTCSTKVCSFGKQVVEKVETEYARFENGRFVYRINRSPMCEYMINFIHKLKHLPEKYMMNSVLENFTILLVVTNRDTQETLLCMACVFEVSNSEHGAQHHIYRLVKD
Source text: (§3) Thermal shift assay (TSA) is a biophysical method to evaluate stability of proteins with change in temperature. The assay measures thermal denaturation temperature in varying conditions such as different drug concentration. For this example, fluorogenic dye was used that bind to unfolded proteins. SYPRO Orange binds non-specifically to hydrophobic surfaces, and water strongly quenches its fluorescence. When the protein unfolds, the exposed hydrophobic surfaces bind the dye, resulting in an increase in fluorescence by excluding water. Detergent micelles also bind the dye and increase background noise dramatically. Binding of small molecules to proteins leads to a stabilization against to thermal denaturation with the degree of thermal stabilization proportional to the strength of binding.
(§4) The study described in this example investigated the change in melting temperature (ΔTm) of TEAD isoforms 1-4 when treated with TEAD inhibitors.
(§5) Tris-HCL was dissolved in 5 mL of Cell culture grade water and allowed to dissolve completely. The pH was adjusted to 8 using NaOH. Additional assay buffer components were added in the order listed above. The buffer was mixed slowly.
(§6) Assay buffer was prepared according to the procedures outlined above and dispensed into test wells. Spyro orange was added to a concentration of 5× in the assay buffer, followed by test compound stock solution which was added to a concentration of 10 μM or 30 μM in the assay buffer.
(§7) The melt cycle was performed in Bio-RAD PCR instrument from 20-95° C. with ramp rate of 1° C./min.

TEAD2 = TEAD2 (Homo sapiens, UniProt Q15562); assay: TEAD thermal shift assay (TSA); assay type: binding
TEAD2, sequence (Q15562 whole entry): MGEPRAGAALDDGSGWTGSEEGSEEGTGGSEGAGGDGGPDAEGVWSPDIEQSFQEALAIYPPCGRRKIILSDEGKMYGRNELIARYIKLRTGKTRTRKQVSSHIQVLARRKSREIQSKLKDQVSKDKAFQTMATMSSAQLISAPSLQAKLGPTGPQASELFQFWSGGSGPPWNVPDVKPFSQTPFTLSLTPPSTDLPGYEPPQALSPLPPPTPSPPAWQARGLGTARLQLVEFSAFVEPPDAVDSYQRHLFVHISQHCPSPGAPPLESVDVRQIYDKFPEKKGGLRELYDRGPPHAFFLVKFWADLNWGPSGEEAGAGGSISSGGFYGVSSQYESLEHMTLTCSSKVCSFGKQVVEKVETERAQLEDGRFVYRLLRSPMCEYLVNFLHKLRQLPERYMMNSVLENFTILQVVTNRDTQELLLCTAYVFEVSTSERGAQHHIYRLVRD
Source text: as §3, §4, §5, §6, §7

TEAD4 = TEAD4 (Homo sapiens, UniProt Q15561); assay: TEAD thermal shift assay (TSA); assay type: binding
TEAD4, sequence (Q15561 whole entry): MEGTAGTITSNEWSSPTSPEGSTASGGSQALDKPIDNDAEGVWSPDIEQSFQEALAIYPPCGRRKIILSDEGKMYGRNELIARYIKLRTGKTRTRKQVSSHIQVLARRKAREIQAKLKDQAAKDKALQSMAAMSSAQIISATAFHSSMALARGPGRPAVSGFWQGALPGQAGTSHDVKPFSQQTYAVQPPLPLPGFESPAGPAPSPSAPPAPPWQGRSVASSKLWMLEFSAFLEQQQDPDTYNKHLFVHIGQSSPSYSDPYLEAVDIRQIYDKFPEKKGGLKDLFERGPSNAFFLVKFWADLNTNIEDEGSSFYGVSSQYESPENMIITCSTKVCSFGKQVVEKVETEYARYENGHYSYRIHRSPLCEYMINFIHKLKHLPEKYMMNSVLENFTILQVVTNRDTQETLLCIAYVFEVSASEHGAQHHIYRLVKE
Source text: as §3, §4, §5, §6, §7

TEAD3 = TEAD3 (Homo sapiens, UniProt Q99594); assay: TEAD thermal shift assay (TSA); assay type: binding; conditions: Ratio of Protein to Compound 1:1
TEAD3, sequence (Q99594 whole entry): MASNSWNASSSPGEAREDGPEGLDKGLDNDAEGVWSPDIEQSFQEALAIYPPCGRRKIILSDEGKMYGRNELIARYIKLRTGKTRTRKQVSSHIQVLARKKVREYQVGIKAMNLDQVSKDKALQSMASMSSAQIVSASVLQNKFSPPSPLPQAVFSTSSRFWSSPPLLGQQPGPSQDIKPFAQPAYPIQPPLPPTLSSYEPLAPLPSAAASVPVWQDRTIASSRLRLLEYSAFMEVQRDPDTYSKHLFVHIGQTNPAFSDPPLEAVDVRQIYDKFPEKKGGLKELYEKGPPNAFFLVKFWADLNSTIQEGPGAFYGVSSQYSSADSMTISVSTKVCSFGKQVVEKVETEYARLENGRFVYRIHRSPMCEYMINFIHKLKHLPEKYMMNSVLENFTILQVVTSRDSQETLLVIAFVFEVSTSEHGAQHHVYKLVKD
Source text: as §3, §4, §5, §6, §7

TEAD = conditions: control compounds; cited from earlier work
TEAD isoforms 1-4 = assay: TEAD thermal shift assay (TSA), outcome in words; assay type: binding, human
Source text: as §3, §4, §5, §6, §7

[3] = Ratio of Protein to Compound 1:1
[4] = Ratio of Protein to Compound 1:3

| IC50 (NCI-H226 cells [1]) [nM] | EC50 (NCI-H226 cells [2]) [nM] | Structure (SMILES) | other results |
| --- | --- | --- | --- |
| < 200 | < 200 | Cn1cnc(-c2cc(C3(C)CCNC3=O)ccc2Nc2ccc(C(F)(F)F)cc2)c1 (racemic) [Compound 2, 3-methyl-3-(3-(1-methyl-1H-imidazol-4-yl)-4-((4-(trifluoromethyl)phenyl)amino)phenyl) pyrrolidin-2-one] | IC50 (NCI-H23 cells): > 1000 nM |
| < 200 | < 200 | Cc1nnc(-c2cc(C3(C)CCNC3=O)ccc2Nc2ccc(C(F)(F)F)cc2)o1 (racemic) [Compound 1, 3-methyl-3-(3-(5-methyl-1,3,4-oxadiazol-2-yl)-4-((4-(trifluoromethyl)phenyl)amino)phenyl) pyrrolidin-2-one] | IC50 (NCI-H23 cells): > 1000 nM |
|  |  | C[C@H](NC(=O)c1ccc2c(-c3ccc(C(F)(F)F)cc3)cccc2c1)c1cccc(N)n1 [Compound 1-4] | TEAD1 ΔTm (TEAD1; [3]): 7.5 °C; TEAD1 ΔTm (TEAD1; [4]): 11 °C; TEAD2 ΔTm (TEAD2; [3]): 2.5 °C; TEAD2 ΔTm (TEAD2; [4]): 11 °C; TEAD4 ΔTm (TEAD4; [3]): 1.5 °C; TEAD4 ΔTm (TEAD4; [4]): 11 °C; TEAD3 ΔTm (TEAD3): 3 °C; known TEAD inhibition (in words) (TEAD): pan-TEAD inhibitor; thermal shift / TEAD binding (in words) (TEAD isoforms 1-4): thermal shifts for all four TEAD isoforms |
| 200 to 1000 | < 200 | Cc1nnc(-c2cc(C3(C)CCNC3=O)ccc2Nc2ccc(C(F)(F)F)cc2)o1 (single isomer, unassigned) [Compound 8, 3-methyl-3-(3-(5-methyl-1,3,4-oxadiazol-2-yl)-4-((4-(trifluoromethyl)phenyl)amino)phenyl) pyrrolidin-2-one] |  |
| < 200 | < 200 | Cn1cnc(-c2cc(C3(C)NC(=O)NC3=O)ccc2Nc2ccc(C(F)(F)F)cc2)c1 (racemic) [Compound 9, 5-methyl-5-(3-(1-methyl-1H-imidazol-4-yl)-4-((4-(trifluoromethyl)phenyl)amino)phenyl) imidazolidine-2,4-dione] |  |
| < 200 | < 200 | Cn1cnc(-c2cc(CN3CCNC3=O)ccc2Nc2ccc(C(F)(F)F)cc2)c1 [Compound 3, 1-(3-(1-methyl-1H-imidazol-4-yl)-4-((4-(trifluoromethyl)phenyl)amino)benzyl)imidazolidin-2-one] |  |
| < 200 | < 200 | Cn1cnc(-c2cc(CN3CC(=O)NC3=O)ccc2Nc2ccc(C(F)(F)F)cc2)c1 [Compound 4, 1-(3-(1-methyl-1H-imidazol-4-yl)-4-((4-(trifluoromethyl)phenyl)amino)benzyl) imidazolidine-2,4-dione] |  |
| < 200 | 200 to 1000 | Cc1nnc(-c2cc([C@@]3(C)CCNC3=O)ccc2Nc2ccc(C(F)(F)F)cc2)o1 (single isomer, unassigned) [Compound 7, 3-methyl-3-(3-(5-methyl-1,3,4-oxadiazol-2-yl)-4-((4-(trifluoromethyl)phenyl)amino)phenyl) pyrrolidin-2-one] |  |
